In ChEMBL document CHEMBL3124876, “A perylene derivative regulates HIF-1α and Stat3 signaling pathways” (Bioorg Med Chem, 2014):
Active and inactive are the calls of the source. No cut-off for these calls is given here.

Tests used:
MDA-MB-231 = assay: Reduction of total Stat3 level in human MDA-MB-231 cells at 0.05 to 20 uM by Western blotting analysis; format: functional, cell-based
Homo sapiens = organism: Homo sapiens; assay: Inhibition of telomerase (unknown origin)

- inhibition (Homo sapiens): Active
SMILES: CN(C)CCCN1C(=O)c2ccc3c4ccc5c6c(ccc(c7ccc(c2c37)C1=O)c64)C(=O)N(CCCN(C)C)C5=O
- Activity (MDA-MB-231): Active
